Results: patent publication US20060030585A1, “Tricyclic delta-opioid modulators” (priority 2004, published 2006)
“And” between values parts separate entries of the source, which are not always exact repeats. Equal values may be shown once. Read-outs that look alike come from different tables or passages of the source.

What was measured:
[1] = biological target: T1, hMOR (CHO-hMOR cell membranes) (Homo sapiens, UniProt P35372); assay: [35S]GTPγS binding assay in CHO-hMOR cell membranes; type: biochemical
T1 construct: host or cells: CHO cells expressing hMOR (purchased membranes)
Method: [^35]GTPγS Binding Assays in CHO-hMOR Cell Membranes
Methods: CHO-hMOR cell membranes were purchased from Receptor Biology, Inc. (Baltimore, Md.). About 10 mg/mL of membrane protein was suspended in 10 mM TRIS-HCl pH 7.2, 2 mM EDTA, 10% sucrose, and the suspension kept on ice. A 1 mL volume of membranes was added to 15 mL cold binding assay buffer containing 50 mM HEPES, pH 7.6, 5 mM MgCl2, 100 mM NaCl, 1 mM DTT and 1 mM EDTA. The membrane suspension was homogenized with a Polytron and centrifuged at 3,000 rpm for 10 min. The supernatant was then centrifuged at 18,000 rpm for 20 min. The pellet was resuspended in 10 mL assay buffer with a Polytron. The membranes were preincubated with wheat germ agglutinin coated SPA beads (Amersham) at 25° C. for 45 min in the assay buffer. The SPA bead (5 mg/mL) coupled membranes (10 μg/mL) were then incubated with 0.5 nM [^35S]GTPγS in the assay buffer. […] A range of concentrations of receptor agonist was used to stimulate [35S]GTPγS binding. Both basal and non-specific binding was tested in the absence of agonist; non-specific binding determination included 10 μM unlabeled GTPγS.
Compounds were tested for function as antagonists by evaluating their potential to inhibit agonist-stimulated GTPγS binding. Radioactivity was quantified on a Packard TopCount. The following parameters were calculated: [formula] [formula]
EC50 values were calculated using GraphPad Prism.

mu opioid receptor = mu opioid receptor (Rattus norvegicus, UniProt P33535); assay: Rat brain mu opioid receptor binding assay ([3H]DAMGO); settings: Rat mu opioid receptor binding constant, rat forebrain membranes, ~0.8 nM [3H]DAMGO
Method: Rat Brain Mu Opioid Receptor Binding Assay
(§1) Procedure: Male, Sprague Dawley rats (150-250 g, VAF, Charles River, Kingston, N.Y.) were killed by CO2, and their brains removed and placed immediately in ice cold Tris HCl buffer (50 mM, pH 7.4). The forebrains were separated from the remainder of the brain by a coronal transection, beginning dorsally at the colliculi and passing ventrally through the midbrain-pontine junction. After dissection, the forebrains were homogenized in Tris buffer in a Teflon®-glass homogenizer. The homogenate was diluted to a concentration of 1 g of forebrain tissue per 80 mL Tris and centrifuged at 39,000×g for 10 min. The pellet was resuspended in the same volume of Tris buffer containing 5 mM MgCl2 with several brief pulses from a Polytron homogenizer. This particulate preparation was used for the delta opioid binding assays.
(§2) Analysis: The data from the scintillation counter were used to calculate either the % inhibition compared to control binding (when only a single concentration of test compound was evaluated) or a Ki value (when a range of concentrations tested). Percent inhibition was calculated as: [(total dpm-test compound dpm)/(total dpm-nonspecific dpm)]*100. Kd and Ki values were calculated using GraphPad PRISM data analysis program.

[2] = biological target: T2, delta opioid receptor (NG108-15 cell membranes) (Mus musculus, UniProt P32300); assay: [35S]GTPγS binding assay in NG108-15 cell membranes (delta opioid); type: biochemical; settings: agonist-stimulated [35S]GTPγS binding
T2 construct: NG108-15 cell membranes were purchased from Applied Cell Sciences (Rockville, Md.); host or cells: NG108-15 cell membranes (purchased)
Method: [^35S]GTPγS Binding Assay in NG108-15 Cell Membranes (delta opioid)
Methods: NG108-15 cell membranes were purchased from Applied Cell Sciences (Rockville, Md.). 8 mg/mL of membrane protein suspended in 10 mM TRIS-HCl pH 7.2, 2 mM EDTA, 10% sucrose. Membranes were maintained at 4-8° C. A 1 mL volume of membranes was added into 10 mL cold binding assay buffer. The assay buffer contained 50 mM Tris, pH 7.6, 5 mM MgCl2, 100 mM NaCl, 1 mM DTT and 1 mM EGTA. The membrane suspension was homogenized twice with a Polytron, and centrifuged at 3000 rpm for 10 min. The supernatant was then centrifuged at 18,000 rpm for 20 min. Ten mL assay buffer was added into the pellet containing tube. The pellet and buffer were mixed with a Polytron.
Incubation procedure: The pellet membranes (75 μg/mL) were preincubated with SPA (10 mg/mL) at 25° C. for 45 min in the assay buffer. […] GTPγS in the same Tris buffer containing 100 μM GDP in total volume of 200 μL. Increasing concentrations of receptor agonists were used to stimulate [35S]-GTPγS binding. The basal binding was tested in the absence of agonists and non-specific binding was tested in the presence of 10 μM unlabeled GTPγS. The data were analyzed on a Packard Top Count.
% of Basal=(stimulated−non specific)*100/(basal−non specific). EC50 value values were calculated using GraphPad Prism.

delta opioid receptor = delta opioid receptor (Rattus norvegicus, UniProt P33533); assay: Rat brain delta opioid receptor binding assay ([3H]DPDPE); settings: Rat delta opioid receptor binding constant, rat forebrain membranes, ~4 nM [3H]DPDPE
Method: Rat Brain Delta Opioid Receptor Binding Assay
as §1, with “assays. Following incubation with the delta selective peptide ligand ˜4 nM [^3H]DPDPE at 25° C. for 2.5 h in a 96-well plate with total volume of 1 mL, the plate contents were filtered through Wallac filtermat B sheets on a Tomtec 96-well harvester. The filters were rinsed three times with 2 mL of 10 mM HEPES (pH 7.4), and dried in a 650 W microwave oven for 1.75 min twice. To each sample area 2×50 μL of Betaplate Scint scintillation fluid (LKB) was added and the radioactivity quantified on a LKB (Wallac) 1205 BetaPlate liquid scintillation counter.” for “assays.”
as §2, with “concentrations was” for “concentrations”

[3] = CHO-hMOR cell membranes, [35S]GTPγS binding, read-out: hMOR GTPγS EC50
[4] = NG108-15 cell membranes, read-out: DOR GTPγS EC50
[5] = DOR GTPγS EC50, NG108-15 cell membranes

T1 sequence (P35372 whole entry): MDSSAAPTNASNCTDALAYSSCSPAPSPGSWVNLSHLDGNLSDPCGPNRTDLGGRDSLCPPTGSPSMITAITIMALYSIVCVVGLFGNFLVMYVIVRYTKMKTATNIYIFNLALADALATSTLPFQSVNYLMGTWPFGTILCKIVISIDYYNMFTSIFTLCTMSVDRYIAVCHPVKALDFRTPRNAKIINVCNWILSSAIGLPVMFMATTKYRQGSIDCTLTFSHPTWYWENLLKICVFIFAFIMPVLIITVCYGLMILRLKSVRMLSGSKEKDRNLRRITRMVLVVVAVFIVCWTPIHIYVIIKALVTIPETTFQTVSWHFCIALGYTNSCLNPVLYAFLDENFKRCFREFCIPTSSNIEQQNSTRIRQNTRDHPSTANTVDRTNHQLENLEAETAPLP
Sequence of mu opioid receptor (P33535 whole entry): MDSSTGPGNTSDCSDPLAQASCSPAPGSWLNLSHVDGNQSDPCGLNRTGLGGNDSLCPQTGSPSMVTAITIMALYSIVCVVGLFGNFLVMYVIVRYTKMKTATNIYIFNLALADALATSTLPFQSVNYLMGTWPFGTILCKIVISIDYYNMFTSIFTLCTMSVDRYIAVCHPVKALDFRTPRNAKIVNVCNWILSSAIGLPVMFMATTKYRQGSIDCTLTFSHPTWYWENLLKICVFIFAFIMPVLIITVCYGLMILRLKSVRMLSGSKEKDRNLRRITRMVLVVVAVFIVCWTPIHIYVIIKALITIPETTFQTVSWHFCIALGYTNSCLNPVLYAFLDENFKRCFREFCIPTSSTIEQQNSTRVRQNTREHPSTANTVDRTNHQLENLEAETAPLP
T2 sequence (P32300 whole entry): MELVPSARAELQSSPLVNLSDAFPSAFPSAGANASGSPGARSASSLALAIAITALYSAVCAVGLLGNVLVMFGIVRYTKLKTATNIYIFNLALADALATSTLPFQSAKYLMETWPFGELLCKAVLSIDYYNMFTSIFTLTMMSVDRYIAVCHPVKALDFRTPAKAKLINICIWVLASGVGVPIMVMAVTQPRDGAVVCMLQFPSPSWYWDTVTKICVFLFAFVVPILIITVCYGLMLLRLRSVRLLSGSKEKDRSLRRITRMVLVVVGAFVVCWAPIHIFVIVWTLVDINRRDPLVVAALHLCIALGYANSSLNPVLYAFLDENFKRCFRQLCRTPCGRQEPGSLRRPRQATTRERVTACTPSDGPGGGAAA
Sequence of delta opioid receptor (P33533 whole entry): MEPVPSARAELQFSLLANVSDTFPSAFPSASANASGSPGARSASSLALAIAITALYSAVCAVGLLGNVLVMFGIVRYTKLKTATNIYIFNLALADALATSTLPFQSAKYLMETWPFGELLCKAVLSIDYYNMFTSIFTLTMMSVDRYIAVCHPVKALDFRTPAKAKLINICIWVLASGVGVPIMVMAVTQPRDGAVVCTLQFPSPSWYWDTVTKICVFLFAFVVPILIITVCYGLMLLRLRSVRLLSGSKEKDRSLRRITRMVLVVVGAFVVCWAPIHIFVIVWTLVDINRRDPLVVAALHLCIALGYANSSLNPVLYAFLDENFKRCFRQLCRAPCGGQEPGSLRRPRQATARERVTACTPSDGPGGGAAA

## CCN(CC)C(=N)c1ccc2c(c1)Oc1ccccc1C2=C1CC2CCC(C1)N2 [Cpd 126]
[1]; [3]
  EC50: > 10000 nM
Mu opioid receptor; read-out: MOR Ki
  Ki: > 10000 nM
[2]; [4]
  EC50: > 10000 nM
Delta opioid receptor; read-out: DOR Ki
  Ki: 1410 nM

## COc1cccc2c1Oc1cc(-c3ccccc3NC(C)=O)ccc1C2=C1CC2CCC(C1)N2 [Cpd 108]
Mu opioid receptor; read-out: MOR Ki
  Ki: 426 nM
[2]; [4]
  EC50: 117 nM
Delta opioid receptor; read-out: DOR Ki
  Ki: 33.9 nM

## COc1cccc2c1Oc1cc(-c3cccnc3)ccc1C2=C1CC2CCC(C1)N2 [Cpd 71]
Mu opioid receptor; read-out: MOR Ki
  Ki: 1140 nM
[2]; [4]
  EC50: 1940 nM
Delta opioid receptor; read-out: DOR Ki
  Ki: 5.7 nM

## O=C(NCc1cccc(F)c1)c1ccc2c(c1)Oc1ccccc1C2=C1CC2CCC(C1)N2 [Cpd 11]
Mu opioid receptor; read-out: MOR Ki
  Ki: 739 nM
[2]; [4]
  EC50: 209 nM
Delta opioid receptor; read-out: DOR Ki
  Ki: 18.5 nM

## O=c1[nH]c(-c2ccc3c(c2)Oc2ccccc2C3=C2CC3CCC(C2)N3)no1 [Cpd 92]
Mu opioid receptor; read-out: MOR Ki
  Ki: 502 nM
[2]; [4]
  EC50: 102 nM
Delta opioid receptor; read-out: DOR Ki
  Ki: 0.07 nM

## CCN(CC)C(=N)c1ccc2c(c1)Oc1ccccc1C2=C1CC2CCC(C1)N2 [Cpd 125]
[1]
  EC50: > 10000 nM
Mu opioid receptor; MOR Ki
  Ki: 2050 nM
[2]; [5]
  EC50: 78.3 nM
Delta opioid receptor; DOR Ki
  Ki: 6.3 nM

## c1ccc2c(c1)Oc1cc(-c3nnn[nH]3)ccc1C2=C1CC2CCC(C1)N2 [Cpd 1, 3-[3-(1H-Tetrazol-5-ly)-xanthen-9-ylidene]-8-aza-bicyclo[3.2.1]octane]
Mu opioid receptor; MOR Ki
  Ki: 637 nM
[2]; [5]
  EC50: 189 nM and 70.3 nM
Delta opioid receptor; DOR Ki
  Ki: 1.99 nM

## Cn1nnc(-c2ccc3c(c2)Oc2ccccc2C3=C2CC3CCC(C2)N3)n1 [Cpd 16, 3-[3-(2-Methyl-2H-tetrazol-5-yl)-xanthen-9-ylidene]-8-aza-bicyclo[3.2.1]octane]
[1]
  EC50: 0.48 nM
Mu opioid receptor; MOR Ki
  Ki: 1460 nM
[2]; [5]
  EC50: 573 nM
Delta opioid receptor; DOR Ki
  Ki: 30 nM

## c1cncc(-c2ccc3c(c2)Oc2ccccc2C3=C2CC3CCC(C2)N3)c1 [Cpd 12, 3-(3-Pyridin-3-yl-xanthen-9-ylidene)-8-aza-bicyclo[3.2.1]octane]
[1]
  EC50: 0.47 nM
Mu opioid receptor; MOR Ki
  Ki: 2130 nM
[2]; [5]
  EC50: 587 nM
Delta opioid receptor; DOR Ki
  Ki: 24 nM

## Cc1cccc(C)c1OCC(C)NC(=O)c1ccc2c(c1)Oc1ccccc1C2=C1CC2CCC(C1)N2 (stereo not shown) [Cpd 13]
Mu opioid receptor; read-out: MOR Ki
  Ki: 2920 nM
[2]; [4]
  EC50: 641 nM
Delta opioid receptor; DOR Ki
  Ki: 23.6 nM

## S=c1[nH]c(-c2ccc3c(c2)Oc2ccccc2C3=C2CC3CCC(C2)N3)no1 [Cpd 94]
Mu opioid receptor; read-out: MOR Ki
  Ki: 219 nM
[2]; [4]
  EC50: 126 nM
Delta opioid receptor; read-out: DOR Ki
  Ki: 0.04 nM

## O=C(c1ccc2c(c1)Oc1ccccc1C2=C1CC2CCC(C1)N2)N1CCCC1 [Cpd 6, [9-(8-Aza-bicyclo[3.2.1]oct-3-ylidene)-9H-xanthen-3-yl]-pyrrolidin-1-yl-methanone]
Mu opioid receptor; MOR Ki
  Ki: 1400 nM
[2]; [5]
  EC50: 59 nM
Delta opioid receptor; DOR Ki
  Ki: 7.4 nM

## O=c1[nH]c(-c2ccc3c(c2)Oc2ccccc2C3=C2CC3CCC(C2)N3)ns1 [Cpd 101]
Mu opioid receptor; read-out: MOR Ki
  Ki: 465 nM
[2]; [4]
  EC50: 281 nM
Delta opioid receptor; read-out: DOR Ki
  Ki: 7 nM

## COCCN(C)C(=O)c1ccc2c(c1)Oc1ccccc1C2=C1CC2CCC(C1)N2 [Cpd 7]
Mu opioid receptor; MOR Ki
  Ki: 1810 nM
[2]; [5]
  EC50: 173 nM
Delta opioid receptor; DOR Ki
  Ki: 7.63 nM

## c1ccc2c(c1)Sc1cc(-c3nnn[nH]3)ccc1C2=C1C[C@H]2CC[C@@H](C1)N2 (single isomer, unassigned) [Cpd 103, (1SR,5RS)-3-[3-(1H-tetrazol-5-yl)-thioxanthen-9-ylidene]-8-aza-bicyclo[3.2.1]octane]
Mu opioid receptor; MOR Ki
  Ki: 329 nM
[2]; [5]
  EC50: 49.6 nM
Delta opioid receptor; DOR Ki
  Ki: 10.1 nM

## O=C(NC(CO)Cc1ccccc1)c1ccc2c(c1)Oc1ccccc1C2=C1CC2CCC(C1)N2 (single isomer, unassigned) [Cpd 15]
Mu opioid receptor; MOR Ki
  Ki: 414 nM
[2]; [5]
  EC50: 79 nM
Delta opioid receptor; DOR Ki
  Ki: 27.5 nM

## S=c1[nH]c(-c2ccc3c(c2)Oc2ccccc2C3=C2CC3CCC(C2)N3)no1 [Cpd 93]
Mu opioid receptor; read-out: MOR Ki
  Ki: 3740 nM
[2]; [4]
  EC50: 631 nM
Delta opioid receptor; read-out: DOR Ki
  Ki: 0.37 nM

## O=c1[nH]c(-c2ccc3c(c2)Oc2ccccc2C3=C2CC3CCC(C2)N3)ns1 [Cpd 8, 3-[9-(8-Aza-bicyclo[3.2.1]oct-3-ylidene)-9H-xanthen-3-yl]-4H-[1,2,4]thiadiazol-5-one]
Mu opioid receptor; MOR Ki
  Ki: 1080 nM
[2]; [5]
  EC50: 359 nM
Delta opioid receptor; DOR Ki
  Ki: 10.8 nM

## S=c1[nH]c(-c2ccc3c(c2)Oc2ccccc2C3=C2CC3CCC(C2)N3)no1 [Cpd 5, 3-[9-(8-Aza-bicyclo[3.2.1]oct-3-ylidene)-9H-xanthen-3-yl]-4H-[1,2,4]oxadiazole-5-thione]
Mu opioid receptor; MOR Ki
  Ki: 1020 nM
[2]; [5]
  EC50: 104 nM
Delta opioid receptor; DOR Ki
  Ki: 6.89 nM

## CC(=O)Nc1ccccc1-c1ccc2c(c1)Oc1ccccc1C2=C1CC2CCC(C1)N2 [Cpd 2, N-{2-[9-(8-Aza-bicyclo[3.2.1]oct-3-ylidene)-9H-xanthen-3-yl]-phenyl}-aceta-mide]
Mu opioid receptor; MOR Ki
  Ki: 1140 nM
[2]; [5]
  EC50: 394 nM
Delta opioid receptor; DOR Ki
  Ki: 4.36 nM

## O=c1[nH]c(-c2ccc3c(c2)Oc2ccccc2C3=C2CC3CCC(C2)N3)no1 [Cpd 91]
Mu opioid receptor; read-out: MOR Ki
  Ki: > 10000 nM
[2]; [4]
  EC50: 72.2 nM
Delta opioid receptor; read-out: DOR Ki
  Ki: 0.76 nM

## c1ccc2c(c1)Oc1cc(-c3nnn[nH]3)ccc1C2=C1CC2CCC(C1)N2 [Cpd 80]
[2]; [4]
  EC50: 226 nM

## O=c1[nH]c(-c2ccc3c(c2)Oc2ccccc2C3=C2CC3CCC(C2)N3)no1 [Cpd 4, 3-[9-(8-Aza-bicyclo[3.2.1]oct-3-ylidene)-9H-xanthen-3-yl]-4H-[1,2,4]oxadiazol-5-one]
Mu opioid receptor; MOR Ki
  Ki: 768 nM
[2]; [5]
  EC50: 128 nM
Delta opioid receptor; DOR Ki
  Ki: 6.78 nM

## COc1cccc2c1Oc1cc(-c3nnn[nH]3)ccc1C2=C1CC2CCC(C1)N2 [Cpd 82]
Mu opioid receptor; read-out: MOR Ki
  Ki: 307 nM
[2]; [4]
  EC50: 88.4 nM
Delta opioid receptor; read-out: DOR Ki
  Ki: 5.6 nM

## Oc1cccc2c1Oc1cc(-c3nnn[nH]3)ccc1C2=C1CC2CCC(C1)N2 [Cpd 90]
[1]; [3]
  EC50: 90 nM
[2]; [4]
  EC50: 0.7 nM
